In BindingDB's records for doi:10.7270/Q20V8B80 (The Scripps Research Institute Molecular Screening Center, 2011):

Molecular target: T1, Caspase-7 (Homo sapiens, UniProt P55210)
T1 sequence (P55210 whole entry): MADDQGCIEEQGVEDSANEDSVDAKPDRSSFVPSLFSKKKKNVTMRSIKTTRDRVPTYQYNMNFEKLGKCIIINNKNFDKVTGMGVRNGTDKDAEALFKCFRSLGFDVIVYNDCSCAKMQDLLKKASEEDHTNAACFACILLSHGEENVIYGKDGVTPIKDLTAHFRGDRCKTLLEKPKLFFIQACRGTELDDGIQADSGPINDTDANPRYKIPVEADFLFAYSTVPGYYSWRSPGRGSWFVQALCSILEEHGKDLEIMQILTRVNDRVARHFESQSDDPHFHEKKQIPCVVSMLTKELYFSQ
Test: procaspase-7 activators, dose response, dual procaspase-3/-7 activator project, biochemical, absorbance, human (AID 504330)

`COc1ccccc1-n1c(O)c2n(-c3ccccc3)[nH]c(C(=O)c3ccccc3)c-2c1=O` and `O=C(c1ccccc1)c1[nH]n(-c2ccccc2)c2c(O)n(-c3ccccc3)c(=O)c1-2` [3-benzoyl-1,5-diphenyl-3a,6a-dihydropyrrolo[3,4-c]pyrazole-4,6-dione] cannot be ordered by EC50: over 85.3 µM for the first, over 85.3 µM for the second.

`COC(=O)c1[nH]n(-c2ccc(Cl)cc2)c2c(O)n(-c3ccccc3OC)c(=O)c1-2` [1-(4-Chloro-phenyl)-5-(2-methoxy-phenyl)-4,6-dioxo-1,3a,4,5,6,6a-hexahydro-pyrrolo[3,4-c]pyrazole-3-carboxylic acid methyl ester] and `C=CC=Nc1c(Cl)c(O)n(-c2cccc(Cl)c2Cl)c1O` [MLS000533809] cannot be ordered by EC50: over 85.3 µM for the first, over 85.3 µM for the second.

`CCOC(=O)C(C#N)C=Nc1cc(OC)ccc1OC` (configuration not stated) [(E)-2-Cyano-3-(2,5-dimethoxy-phenylamino)-acrylic acid ethyl ester] and `CCOc1ccc(NC=C2C(=O)CC(c3ccco3)CC2=O)cc1` (configuration not stated) [SMR000268302] cannot be ordered by EC50: over 85.3 µM for the first, over 85.3 µM for the second.

In the case of `Cc1[nH]nc2c1C(c1c[nH]c3ccccc13)C(C#N)C(=N)O2` (configuration not stated) [MLS001030009], the EC50 is reported as 27.8 µM.
